Where two headings read alike, the source gives them in different places. Values belong to the molecule of their own block, whether it stands above or below them.
Tests used:
[1] = Oral pharmacokinetic study in rats; assay type: in vivo; conditions: rat, brain, male SD rats, oral gavage, read-out: B/P (1 h)
Experimental: Drug preparation: 1% MC was added to the compound, ground, and shaken uniformly. Samples were collected at 5 min, 15 min, 30 min, 1 h, 2 h, 4 h, and 8 h post-dose, followed by analysis using liquid chromatography-tandem mass spectrometry (LC-MS/MS).

LRRK2 wt = LRRK2 wt (Homo sapiens, UniProt Q5S007); experiment: Kinase activity inhibition assay (ADP-Glo), LRRK2 wt; assay type: biochemical; conditions: read-out: LRRK2 wt inhibition rate at 100 nM; compound at 100 nM
Sequence of LRRK2 wt (Q5S007 whole entry): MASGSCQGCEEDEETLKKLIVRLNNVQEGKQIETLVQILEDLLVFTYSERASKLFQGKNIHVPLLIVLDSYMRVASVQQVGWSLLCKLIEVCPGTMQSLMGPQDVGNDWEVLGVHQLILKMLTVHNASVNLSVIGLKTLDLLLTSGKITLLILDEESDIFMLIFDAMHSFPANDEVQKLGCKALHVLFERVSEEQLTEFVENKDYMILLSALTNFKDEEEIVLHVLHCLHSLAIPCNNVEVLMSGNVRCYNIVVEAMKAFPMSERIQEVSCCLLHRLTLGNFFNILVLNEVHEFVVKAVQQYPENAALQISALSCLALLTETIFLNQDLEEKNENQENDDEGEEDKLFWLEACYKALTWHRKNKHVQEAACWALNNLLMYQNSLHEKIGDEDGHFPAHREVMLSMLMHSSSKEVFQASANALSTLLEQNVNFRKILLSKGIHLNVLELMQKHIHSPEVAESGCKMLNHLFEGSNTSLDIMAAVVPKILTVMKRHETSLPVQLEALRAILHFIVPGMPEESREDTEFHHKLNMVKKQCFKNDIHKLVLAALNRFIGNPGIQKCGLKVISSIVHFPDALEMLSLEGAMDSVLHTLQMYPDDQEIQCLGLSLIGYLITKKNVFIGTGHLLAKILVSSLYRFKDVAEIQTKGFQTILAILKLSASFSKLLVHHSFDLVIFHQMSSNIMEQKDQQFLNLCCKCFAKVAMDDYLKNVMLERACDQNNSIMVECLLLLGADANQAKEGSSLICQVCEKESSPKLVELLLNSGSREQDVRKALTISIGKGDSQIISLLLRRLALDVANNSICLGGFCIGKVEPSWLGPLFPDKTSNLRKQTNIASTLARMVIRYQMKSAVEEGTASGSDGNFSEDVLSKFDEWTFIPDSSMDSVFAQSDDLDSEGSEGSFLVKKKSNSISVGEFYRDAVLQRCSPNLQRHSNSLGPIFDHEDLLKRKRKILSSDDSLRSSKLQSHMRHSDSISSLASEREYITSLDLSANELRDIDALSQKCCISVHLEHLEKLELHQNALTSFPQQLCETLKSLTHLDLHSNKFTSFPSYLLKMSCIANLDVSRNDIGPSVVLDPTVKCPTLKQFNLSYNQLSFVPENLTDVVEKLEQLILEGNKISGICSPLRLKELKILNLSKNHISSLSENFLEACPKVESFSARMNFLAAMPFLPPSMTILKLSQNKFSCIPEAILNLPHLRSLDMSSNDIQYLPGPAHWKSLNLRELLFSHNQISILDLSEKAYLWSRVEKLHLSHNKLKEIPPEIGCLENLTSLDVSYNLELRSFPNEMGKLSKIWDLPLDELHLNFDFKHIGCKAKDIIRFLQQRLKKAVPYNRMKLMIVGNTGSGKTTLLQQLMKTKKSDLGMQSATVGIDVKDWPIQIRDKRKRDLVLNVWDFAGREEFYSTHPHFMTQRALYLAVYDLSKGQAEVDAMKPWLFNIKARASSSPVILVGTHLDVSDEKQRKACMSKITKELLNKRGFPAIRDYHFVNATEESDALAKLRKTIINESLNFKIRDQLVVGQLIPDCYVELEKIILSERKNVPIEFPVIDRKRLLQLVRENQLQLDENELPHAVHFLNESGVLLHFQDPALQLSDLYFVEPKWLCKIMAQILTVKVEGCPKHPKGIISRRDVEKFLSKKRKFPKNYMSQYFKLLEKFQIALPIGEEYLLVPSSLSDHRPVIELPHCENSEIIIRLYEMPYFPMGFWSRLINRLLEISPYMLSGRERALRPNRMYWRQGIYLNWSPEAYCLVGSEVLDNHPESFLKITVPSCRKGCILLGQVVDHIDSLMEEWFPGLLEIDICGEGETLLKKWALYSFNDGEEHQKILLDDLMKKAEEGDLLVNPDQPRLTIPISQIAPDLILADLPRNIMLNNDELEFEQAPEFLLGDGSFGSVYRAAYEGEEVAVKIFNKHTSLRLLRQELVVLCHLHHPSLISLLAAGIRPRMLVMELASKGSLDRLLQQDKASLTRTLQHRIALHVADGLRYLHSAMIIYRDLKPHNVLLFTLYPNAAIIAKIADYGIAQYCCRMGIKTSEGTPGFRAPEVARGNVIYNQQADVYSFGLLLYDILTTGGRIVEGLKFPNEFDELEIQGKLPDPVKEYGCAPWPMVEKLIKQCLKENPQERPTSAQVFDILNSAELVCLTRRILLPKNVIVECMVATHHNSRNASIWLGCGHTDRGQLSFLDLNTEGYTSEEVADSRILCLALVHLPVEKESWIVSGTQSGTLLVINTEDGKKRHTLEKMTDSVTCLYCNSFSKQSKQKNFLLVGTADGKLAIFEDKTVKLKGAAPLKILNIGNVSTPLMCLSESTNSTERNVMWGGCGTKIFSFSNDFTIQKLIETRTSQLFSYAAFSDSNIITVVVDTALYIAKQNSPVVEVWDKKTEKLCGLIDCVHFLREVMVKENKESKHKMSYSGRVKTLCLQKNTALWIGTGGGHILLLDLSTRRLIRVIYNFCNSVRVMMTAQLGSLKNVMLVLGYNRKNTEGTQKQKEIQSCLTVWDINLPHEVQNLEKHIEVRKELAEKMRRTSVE
Experimental: The kinase activity inhibition assay was performed by ICE Bioscience (Beijing) using ADP-Glo and HTRF methods.

Kp at 1 h ([1]; 3 mg/kg, 3 mpk): 0.13
SMILES: Cc1nn2cc1Nc1ncc(C(F)(F)F)c(n1)NCCCNC(=O)C2(C)C [Example T-1, (E)-3^3,4,4-Trimethyl-15-(trifluoromethyl)-3^1H-2,6,10-triaza-1(2,4)-pyrimidina-3(4,1)-pyrazolacyclodecan-5-one]

inhibition at 0.1 µM (LRRK2 wt): 42.1%
SMILES: Cc1nn2cc1Nc1ncc(C(F)(F)F)c(n1)NC1CCCC(C1)NC(=O)C2(C)C (stereo not drawn) [Example T-42, (5^3R,E)-1^3,8,8-Trimethyl-3^5-(trifluoromethyl)-1^1H-2,4,6-triaza-3(2,4)-pyrimidina-1(4,1)-pyrazola-5(1,3)-cyclohexacyclooctan-7-one]

Kp at 1 h ([1]; 5 mg/kg, 5 mpk): 0.58
SMILES: Cc1nn2cc1Nc1ncc3c(Cl)cc(n3n1)CCCNC(=O)C2(C)C [Example T-25, (1^1Z,3^4E)-1^5-Chloro-3^3,4,4-trimethyl-3^1H-2,6-diaza-1(2,7)-pyrrolo[2,1-f][1,2,4]triazine-3(4,1)-pyrazolacyclononan-5-one]
